Data published in patent publication US20260159511A1, “SMALL MOLECULE STING ANTAGONISTS” (CURADEV PHARMA PVT. LTD., priority 2021, published 2026).

System: IRF pathway in THP1-Dual™ cells, THP-1 (HAQ)
Assay: Reporter gene expression assay in THP-1 cells (THP1-Dual, IRF pathway Lucia luciferase reporter, 2′,3′-cGAMP stimulation)
Assay type: cell-based, human
Settings: Homo sapiens; THP1-Dual cells preincubated with compound 10 minutes, stimulation with 5 μM 2′,3′-cGAMP for 20 hr, QUANTI-Luc readout of the supernatant; read-out: THP-1 (HAQ) Activity (IC50 value range)
Procedure: Reporter Gene Expression Assay in THP-1 Cells
THP1-Dual™ cells (Invivogen) were derived from the human THP-1 monocyte cell line by stable integration of two inducible reporter constructs. As a result, THP1-Dual™ cells allow the simultaneous study of the IRF pathway, by assessing the activity of a secreted luciferase (Lucia) and the NF-κB pathway, by monitoring the activity of secreted SEAP. 5×10^4 THP1-Dual™ cells were seeded in 384-well plates in growth medium and preincubated with novel compounds for 10 minutes followed by stimulation with 5 μM 2′,3′-cGAMP. After 20 hr of stimulation the supernatant was removed and the IRF pathway reporter protein was readily measured in the cell culture supernatant using QUANTI-Luc™ (Invivogen), a luciferase detection reagent on a Spectramax i3X luminometer.

| Compound | IC50 |
| --- | --- |
| O=C(Nc1ccc2c(c1)N(Cc1ccccc1)C(=O)CS2)Nc1c[nH]c2ccc(-c3ccc4c(c3)OCO4)cc12 [Example 65, 1-(5-(benzo[d][1,3]dioxol-5-yl)-1H-indol-3-yl)-3-(4-benzyl-3-oxo-3,4-dihydro-2H-benzo[b][1,4]thiazin-6-yl)urea] | < 1000 nM |
| O=C(Nc1ccc2c(c1)N(Cc1ccccc1)C(=O)CS2)Nc1c[nH]c2ccc(-c3cnoc3)cc12 [Example 66, 1-(4-benzyl-3-oxo-3,4-dihydro-2H-benzo[b][1,4]thiazin-6-yl)-3-(5-(isoxazol-4-yl)-1H-indol-3-yl)urea] | < 1000 nM |
| O=C(Nc1ccc2c(c1)N(Cc1ccccc1)C(=O)CS2)Nc1c[nH]c2ccc(-c3cccc(C(F)(F)F)c3)cc12 [Example 67, 1-(4-benzyl-3-oxo-3,4-dihydro-2H-benzo[b][1,4]thiazin-6-yl)-3-(5-(3-(trifluoromethyl)phenyl)-1H-indol-3-yl)urea] | < 1000 nM |
| CC(O)Cn1cc(-c2ccc3[nH]cc(NC(=O)Nc4ccc5c(c4)N(Cc4ccccc4)C(=O)CS5)c3c2)cn1 (stereo not drawn) [Example 68, 1-(4-benzyl-3-oxo-3,4-dihydro-2H-benzo[b][1,4]thiazin-6-yl)-3-(5-(1-(2-hydroxypropyl)-1H-pyrazol-4-yl)-1H-indol-3-yl)urea] | 1000 to 10000 nM |
| CC1CN(Cc2cc(F)cc(F)c2)c2cc(NC(=O)Nc3c[nH]c4ccc(F)cc34)ccc2S1 (stereo not drawn) [Example 69, 1-(4-(3,5-Difluorobenzyl)-2-methyl-3,4-dihydro-2H-benzo[b][1,4]thiazin-6-yl)-3-(5-fluoro-1H-indol-3-yl)urea] | < 1000 nM |
| CC1CN(C(=O)c2ccccc2)c2cc(NC(=O)Nc3c[nH]c4ccccc34)ccc2S1 (stereo not drawn) [Example 70, 1-(4-Benzoyl-2-methyl-3,4-dihydro-2H-benzo[b][1,4]thiazin-6-yl)-3-(1H-indol-3-yl)urea] | < 1000 nM |
| O=C(Nc1ccc2c(c1)N(Cc1ccccc1)CCO2)Nc1c[nH]c2ccccc12 [Example 71, 1-(4-benzyl-3,4-dihydro-2H-benzo[b][1,4]oxazin-6-yl)-3-(1H-indol-3-yl)urea] | < 1000 nM |
| O=C(Nc1ccc2c(c1)OCCN2Cc1ccccc1)Nc1c[nH]c2ccccc12 [Example 72, 1-(4-benzyl-3,4-dihydro-2H-benzo[b][1,4]oxazin-7-yl)-3-(1H-indol-3-yl)urea] | < 1000 nM |
| O=C(Nc1ccc2c(c1)SCCN2Cc1ccccc1)Nc1c[nH]c2ccccc12 [Example 73, 1-(4-benzyl-3,4-dihydro-2H-benzo[b][1,4]thiazin-7-yl)-3-(1H-indol-3-yl)urea] | < 1000 nM |
| O=C(Nc1ccc2c(c1)N(Cc1c(F)cccc1Cl)CCO2)Nc1c[nH]c2ccccc12 [Example 74, 1-(4-(2-chloro-6-fluorobenzyl)-3,4-dihydro-2H-benzo[b][1,4]oxazin-6-yl)-3-(1H-indol-3-yl)urea] | < 1000 nM |
| O=C(Nc1ccc2c(c1)N(Cc1c(F)cccc1Cl)CCS2)Nc1c[nH]c2ccccc12 [Example 75, 1-(4-(2-chloro-6-fluorobenzyl)-3,4-dihydro-2H-benzo[b][1,4]thiazin-6-yl)-3-(1H-indol-3-yl)urea] | < 1000 nM |
| O=C(Nc1ccc2c(c1)OCCN2Cc1c(F)cccc1Cl)Nc1c[nH]c2ccccc12 [Example 76, 1-(4-(2-chloro-6-fluorobenzyl)-3,4-dihydro-2H-benzo[b][1,4]oxazin-7-yl)-3-(1H-indol-3-yl)urea] | < 1000 nM |
| O=C(Nc1ccc2c(c1)SCCN2Cc1c(F)cccc1Cl)Nc1c[nH]c2ccccc12 [Example 77, 1-(4-(2-chloro-6-fluorobenzyl)-3,4-dihydro-2H-benzo[b][1,4]thiazin-7-yl)-3-(1H-indol-3-yl)urea] | < 1000 nM |
| CN1CCSc2ccc(NC(=O)Nc3c[nH]c4ccccc34)cc21 [Example 78, 1-(1H-indol-3-yl)-3-(4-methyl-3,4-dihydro-2H-benzo[b][1,4]thiazin-6-yl)urea] | < 1000 nM |
| O=C(Nc1ccc2c(c1)N(C(=O)c1ccccc1)CCS2)Nc1c[nH]c2ccccc12 [Example 79, 1-(4-benzoyl-3,4-dihydro-2H-benzo[b][1,4]thiazin-6-yl)-3-(1H-indol-3-yl)urea] | < 1000 nM |
| O=C(Nc1ccc2c(c1)SCCN2C(=O)c1ccccc1)Nc1c[nH]c2ccccc12 [Example 80, 1-(4-benzoyl-3,4-dihydro-2H-benzo[b][1,4]thiazin-7-yl)-3-(1H-indol-3-yl)urea] | < 1000 nM |
| O=C(Nc1ccc2c(c1)SCCN2Cc1c(F)cccc1F)Nc1c[nH]c2ccccc12 [Example 81, 1-(4-(2,6-difluorobenzyl)-3,4-dihydro-2H-benzo[b][1,4]thiazin-7-yl)-3-(1H-indol-3-yl)urea] | < 1000 nM |
| Cc1cccc(F)c1CN1CCSc2cc(NC(=O)Nc3c[nH]c4ccccc34)ccc21 [Example 82, 1-(4-(2-fluoro-6-methylbenzyl)-3,4-dihydro-2H-benzo[b][1,4]thiazin-7-yl)-3-(1H-indol-3-yl)urea] | < 1000 nM |

| Compound | IC50 |
| --- | --- |
| CC1CN(Cc2ccccc2)c2cc(NC(=O)Nc3c[nH]c4ccccc34)ccc2S1 (stereo not drawn) [Example 83, 1-(4-benzyl-2-methyl-3,4-dihydro-2H-benzo[b][1,4]thiazin-6-yl)-3-(1H-indol-3-yl)urea] | < 1000 nM |
| CC1CN(Cc2c(F)cccc2Cl)c2cc(NC(=O)Nc3c[nH]c4ccccc34)ccc2S1 (stereo not drawn) [Example 84, 1-(4-(2-chloro-6-fluorobenzyl)-2-methyl-3,4-dihydro-2H-benzo[b][1,4]thiazin-6-yl)-3-(1H-indol-3-yl)urea] | < 1000 nM |
| CC1CN(Cc2ccccc2)c2ccc(NC(=O)Nc3c[nH]c4ccccc34)cc2S1 (stereo not drawn) [Example 85, 1-(4-benzyl-2-methyl-3,4-dihydro-2H-benzo[b][1,4]thiazin-7-yl)-3-(1H-indol-3-yl)urea] | < 1000 nM |
| Cc1cc(CN2CCSc3cc(NC(=O)Nc4c[nH]c5ccccc45)ccc32)on1 [Example 86, 1-(1H-indol-3-yl)-3-(4-((3-methylisoxazol-5-yl)methyl)-3,4-dihydro-2H-benzo[b][1,4]thiazin-7-yl)urea] | < 1000 nM |
| N#Cc1ccccc1CN1CCSc2cc(NC(=O)Nc3c[nH]c4ccccc34)ccc21 [Example 87, 1-(4-(2-cyanobenzyl)-3,4-dihydro-2H-benzo[b][1,4]thiazin-7-yl)-3-(1H-indol-3-yl)urea] | < 1000 nM |
| O=C(Nc1ccc2c(c1)SCCN2Cc1cc(F)cc(F)c1)Nc1c[nH]c2ccccc12 [Example 88, 1-(4-(3,5-difluorobenzyl)-3,4-dihydro-2H-benzo[b][1,4]thiazin-7-yl)-3-(1H-indol-3-yl)urea] | < 1000 nM |
| O=C(Nc1ccc2c(c1)SCCN2Cc1ccccn1)Nc1c[nH]c2ccccc12 [Example 89, 1-(1H-indol-3-yl)-3-(4-(pyridin-2-ylmethyl)-3,4-dihydro-2H-benzo[b][1,4]thiazin-7-yl)urea] | < 1000 nM |
| O=C(Nc1ccc2c(c1)N(Cc1cc(F)cc(F)c1)CCO2)Nc1c[nH]c2ccccc12 [Example 90, 1-(4-(3,5-difluorobenzyl)-3,4-dihydro-2H-benzo[b][1,4]oxazin-6-yl)-3-(1H-indol-3-yl)urea] | < 1000 nM |
| O=C(Nc1ccc2c(c1)N(Cc1cc(F)cc(F)c1)CCO2)Nc1c[nH]c2ccc(F)cc12 [Example 91, 1-(4-(3,5-difluorobenzyl)-3,4-dihydro-2H-benzo[b][1,4]oxazin-6-yl)-3-(5-fluoro-1H-indol-3-yl)urea] | < 1000 nM |
| O=C(Nc1ccc2c(c1)N(Cc1cc(F)cc(F)c1)CCS2)Nc1c[nH]c2ccccc12 [Example 92, 1-(4-(3,5-difluorobenzyl)-3,4-dihydro-2H-benzo[b][1,4]thiazin-6-yl)-3-(1H-indol-3-yl)urea] | < 1000 nM |
| O=C(Nc1ccc2c(c1)N(Cc1cc(F)cc(F)c1)CCS2)Nc1c[nH]c2ccc(F)cc12 [Example 93, 1-(4-(3,5-difluorobenzyl)-3,4-dihydro-2H-benzo[b][1,4]thiazin-6-yl)-3-(5-fluoro-1H-indol-3-yl)urea] | < 1000 nM |
| CC1CN(Cc2cc(F)cc(F)c2)c2cc(NC(=O)Nc3c[nH]c4ccccc34)ccc2S1 (stereo not drawn) [Example 94, 1-(4-(3,5-difluorobenzyl)-2-methyl-3,4-dihydro-2H-benzo[b][1,4]thiazin-6-yl)-3-(1H-indol-3-yl)urea] | < 1000 nM |
| NC(=O)c1ccccc1CN1CCSc2cc(NC(=O)Nc3c[nH]c4ccccc34)ccc21 [Example 95, 2-((7-(3-(1H-indol-3-yl)ureido)-2,3-dihydro-4H-benzo[b][1,4]thiazin-4-yl)methyl)benzamide] | < 1000 nM |
| Cc1cc(CN2CCSc3cc(NC(=O)Nc4c[nH]c5ccccc45)ccc32)no1 [Example 96, 1-(1H-indol-3-yl)-3-(4-((5-methylisoxazol-3-yl)methyl)-3,4-dihydro-2H-benzo[b][1,4]thiazin-7-yl)urea] | < 1000 nM |
| CC1CN(Cc2ccccc2)c2cc(NC(=O)Nc3c[nH]c4ccc(F)cc34)ccc2S1 (stereo not drawn) [Example 97, 1-(4-benzyl-2-methyl-3,4-dihydro-2H-benzo[b][1,4]thiazin-6-yl)-3-(5-fluoro-1H-indol-3-yl)urea] | < 1000 nM |
| O=C(Nc1ccc2c(c1)N(Cc1ccccc1)CCS2)Nc1c[nH]c2cc(F)ccc12 [Example 98, 1-(4-benzyl-3,4-dihydro-2H-benzo[b][1,4]thiazin-6-yl)-3-(6-fluoro-1H-indol-3-yl)urea] | < 1000 nM |
| O=C(Nc1ccc2c(c1)N(Cc1ccccc1)CCS2)Nc1c[nH]c2ccc(F)cc12 [Example 99, 1-(4-benzyl-3,4-dihydro-2H-benzo[b][1,4]thiazin-6-yl)-3-(5-fluoro-1H-indol-3-yl)urea] | < 1000 nM |
| O=C(Nc1ccc2c(c1)N(Cc1ccccc1)CCS2)Nc1c[nH]c2ncc(F)cc12 [Example 100, 1-(4-benzyl-3,4-dihydro-2H-benzo[b][1,4]thiazin-6-yl)-3-(5-fluoro-1H-pyrrolo[2,3-b]pyridin-3-yl)urea] | < 1000 nM |
